Data as given in ChEMBL document CHEMBL5550126, “Identification of naphthalimide-derivatives as novel PBD-targeted polo-like kinase 1 inhibitors with efficacy in drug-resistant lung cancer cells” (Eur J Med Chem, 2024).
pIC50: −log10 of the molar value. Active and inactive are the calls of the source. The calls are words filed in the database; no cut-off is given here.

What was measured:
[1] = Toxicity in male BALB/c nude mouse xenografted with human A549/DDP cells assessed as change in kidney index at 30 to 50 mg/kg, ip administered every 2 days for 32 days; type: organism-based, A549/CDDP; conditions: in vivo, 768 h, dose 30-50 mg/kg, time 32 day
[2] = tested on: A549; assay: Induction of cell cycle arrest at G2/M phase in human A549 cells at 0 to 15 uM measured after 48 hrs by RNase A/PI staining based flow cytometry analysis; type: functional; conditions: dose 0-15 µM
[3] = GSH reactivity in human A549 cells assessed as increase in fluorescence intensity measured after 48 hrs; type: ADME, cell-based; conditions: a549, 48 h, dose 0-9 µM
[4] = tested on: A549/CDDP; assay: Effect on cyclin A2 protein expression in human A549/DDP cells assessed as effect on protein abundance at 0 to 6 uM measured after 48 hrs by Western blot analysis; type: functional, cell-based; conditions: dose 0-6 µM
[5] = tested on: A549/CDDP; assay: Antitumor activity against human A549/DDP cells assessed as male BALB/c nude mouse assessed as median survival time at 30 mg/kg, ip administered every 2 days for 32 days (reference value: 38 days); type: functional; conditions: time 32 day
[6] = tested on: A549/CDDP; assay: Effect on c-Myc protein expression in human A549/DDP cells assessed as effect on protein abundance at 0 to 6 uM measured after 48 hrs by Western blot analysis; type: functional, cell-based; conditions: dose 0-6 µM
[7] = tested on: A549; assay: Induction of mitotic catastrophe in human A549 cells assessed as downregulation of CDC25 protein expression at 1.5 to 6 uM measured after 48 hrs by Western blot analysis; type: functional, cell-based; conditions: dose 1.5-6 µM
[8] = tested on: A549; assay: Induction of mitotic catastrophe in human A549 cells assessed as appearance of multinucleated cells during mitosis at 1.5 uM measured after 48 hrs by immunostaining based laser confocal microscopic analysis; type: functional, cell-based
[9] = tested on: A549/CDDP; assay: Antitumor activity against human A549/DDP cells assessed as male BALB/c nude mouse assessed as tumor growth inhibition at 30 mg/kg, ip administered every 2 days for 32 days and measured 3 times a week relative to control; type: functional; conditions: 768 h, time 32 day, read-out: TGI
[10] = Toxicity in male BALB/c nude mouse xenografted with human gefitinib resistant NCI-H1975 cells assessed as heart damage at 30 mg/kg, po administered every 2 days for 20 days and measured 3 times a week by H and E staining based analysis; type: organism-based; conditions: in vivo, 480 h, time 20 day
[11] = tested on: A549/CDDP; assay: Disruption of redox homeostasis in human A549/DDP cells assessed as induction of cell death; type: functional, cell-based
[12] = Toxicity in male BALB/c nude mouse xenografted with human gefitinib resistant NCI-H1975 cells assessed as liver damage at 30 mg/kg, po administered every 2 days for 20 days and measured 3 times a week by H and E staining based analysis; type: organism-based; conditions: in vivo, 480 h, time 20 day
[13] = tested on: A549; assay: Induction of mitotic catastrophe in human A549 cells assessed as downregulation of CDK1-cyclin B1 complex protein expression at 1.5 to 6 uM measured after 48 hrs by Western blot analysis; type: functional, cell-based; conditions: dose 1.5-6 µM
[14] = tested on: NCI-H460; assay: Anticancer activity against human NCI-H460 cells assessed as inhibition of cell growth incubated for 48 hrs by crystal violet staining based analysis; type: functional; conditions: NCI-H460, 48 h
[15] = tested on: A549/CDDP; assay: Antitumor activity against human A549/DDP cells assessed as male BALB/c nude mouse assessed as tumor regression at 50 mg/kg, ip administered every 2 days for 32 days and measured 3 times a week; type: functional, organism-based; conditions: time 32.0 day
[16] = GSH reactivity of compound in PBS assessed as increase in fluorogenic response at 5 uM measured after 0 to 24 hrs by fluorescence spectrophotometer; type: physicochemical; conditions: buffer, time 0-24 hrs
[17] = tested on: A549/CDDP; assay: Antitumor activity against human A549/DDP cells assessed as male BALB/c nude mouse assessed as median survival time at 50 mg/kg, ip administered every 2 days for 32 days (reference value: 38 days); type: functional; conditions: time 32 day
[18] = Toxicity in male BALB/c nude mouse xenografted with human A549/DDP cells assessed as heart damage at 30 to 50 mg/kg, ip administered every 2 days for 32 days by H and E staining based analysis; type: organism-based, A549/CDDP; conditions: in vivo, 768 h, dose 30-50 mg/kg, time 32 day
[19] = tested on: A549/CDDP; assay: Antitumor activity against human A549/DDP cells assessed as male BALB/c nude mouse assessed as increase in survival time at 30 to 50 mg/kg, ip administered every 2 days for 32 days; type: functional, organism-based; conditions: dose 30-50 mg/kg, time 32.0 day
[20] = tested on: A549; assay: Anticancer activity against human A549 cells assessed as inhibition of cell growth incubated for 48 hrs by crystal violet staining based analysis; type: functional; conditions: A549, 48 h
[21] = Toxicity in male BALB/c nude mouse xenografted with human A549/DDP cells assessed as lung damage at 30 to 50 mg/kg, ip administered every 2 days for 32 days by H and E staining based analysis; type: organism-based, A549/CDDP; conditions: in vivo, 768 h, dose 30-50 mg/kg, time 32 day
[22] = tested on: A549; assay: Induction of morphological changes in human A549 cells assessed as increase in mitotic catastrophe in nucleus at 0 to 3 uM measured after 48 hrs by immunofluorescence based laser confocal microscopic analysis; type: functional, cell-based; conditions: dose 0-3 µM
[23] = tested on: A549/CDDP; assay: Antitumor activity against human A549/DDP cells assessed as male BALB/c nude mouse assessed as reduction in cell proliferation by measuring reduction in […] positive cells in tumor at 30 to 50 mg/kg, ip administered every 2 days for 32 days by immunohistochemistry; type: functional, organism-based; conditions: dose 30-50 mg/kg, time 32.0 day
[24] = target: T1, Serine/threonine-protein kinase PLK1 (Homo sapiens, UniProt P53350); assay: Binding affinity to FLAG-tagged PLK1 PBD region (unknown origin) transfected in human A549 cells at 10 uM incubated for 1 hr by coimmunoprecipitation-MS analysis; type: cell-based
T1 sequence (P53350 whole entry): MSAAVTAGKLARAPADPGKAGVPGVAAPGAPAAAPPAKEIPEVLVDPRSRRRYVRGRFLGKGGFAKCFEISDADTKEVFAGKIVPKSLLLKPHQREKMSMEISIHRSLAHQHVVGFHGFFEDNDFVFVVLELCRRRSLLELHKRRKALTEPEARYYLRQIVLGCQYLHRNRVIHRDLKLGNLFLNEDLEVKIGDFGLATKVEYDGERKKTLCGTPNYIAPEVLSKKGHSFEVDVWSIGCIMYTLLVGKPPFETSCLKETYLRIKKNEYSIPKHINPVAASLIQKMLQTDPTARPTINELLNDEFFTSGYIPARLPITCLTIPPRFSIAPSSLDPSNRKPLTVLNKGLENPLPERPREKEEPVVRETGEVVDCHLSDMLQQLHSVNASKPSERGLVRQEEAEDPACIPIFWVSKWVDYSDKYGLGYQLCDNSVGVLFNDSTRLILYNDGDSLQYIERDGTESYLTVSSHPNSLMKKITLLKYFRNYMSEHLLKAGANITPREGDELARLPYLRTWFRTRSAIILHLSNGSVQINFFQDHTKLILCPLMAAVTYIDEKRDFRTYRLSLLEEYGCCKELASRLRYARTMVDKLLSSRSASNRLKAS

[25] = Toxicity in male BALB/c nude mouse xenografted with human gefitinib resistant NCI-H1975 cells assessed as kidney damage at 30 mg/kg, po administered every 2 days for 20 days and measured 3 times a week by H and E staining based analysis; type: organism-based; conditions: in vivo, 480 h, time 20 day
[26] = tested on: A549; assay: Disruption of PLK1-PRC1 protein protein interaction in human A549 cells assessed as reduction in amount of PLK1 captured by PRC1 antibody at 6 uM measured after 48 hrs by Co-IP analysis; type: cell-based
[27] = Toxicity in male BALB/c nude mouse xenografted with human A549/DDP cells assessed as kidney damage at 30 to 50 mg/kg, ip administered every 2 days for 32 days by H and E staining based analysis; type: organism-based, A549/CDDP; conditions: in vivo, 768 h, dose 30-50 mg/kg, time 32 day
[28] = tested on: A549/CDDP; assay: Antitumor activity against human A549/DDP cells assessed as male BALB/c nude mouse assessed as reduction in tumor growth at 30 to 50 mg/kg, ip administered every 2 days for 32 days and measured 3 times a week; type: functional, organism-based; conditions: dose 30-50 mg/kg, time 32.0 day
[29] = target: T1, Serine/threonine-protein kinase PLK1; assay: Binding affinity to PLK1 in human A549/DDP cell lysates assessed as thermal stabilization at 20 uM at 44 to 64 degreeC incubated for 2 hrs by CETSA; type: subcellular; conditions: Lysate
[30] = tested on: A549/CDDP; assay: Effect on p-CDK2 protein expression in human A549/DDP cells assessed as effect on protein abundance at 0 to 6 uM measured after 48 hrs by Western blot analysis; type: functional, cell-based; conditions: dose 0-6 µM
[31] = tested on: MGC-803; assay: Anticancer activity against human MGC-803 cells assessed as inhibition of cell growth incubated for 48 hrs by crystal violet staining based analysis; type: functional; conditions: MGC-803, 48 h
[32] = tested on: A549/CDDP; assay: Disruption of redox homeostasis in human A549/DDP cells assessed as increase in ROS level at 0 to 9 uM measured after 48 hrs; type: functional, cell-based; conditions: dose 0-9 µM

CN(C)CCN1C(=O)c2cccc3c(S(=O)(=O)NCc4ccc(F)cc4)ccc(c23)C1=O
Activity [1]: Non-Toxic
Activity [2]: Active
Drug metabolism [3]: Metabolite_Detected
Activity [4]: Active
MSD [5]: 53 days
Activity [6]: Active
Activity [7]: Active
Activity [8]: Active
inhibition in vivo at 30 mg/kg [9]: 42%
Activity [10]: Non-Toxic
Activity [11]: Active
Activity [12]: Non-Toxic
Activity [13]: Active
pIC50 [14]: 5.64
Activity [15]: Active
Drug metabolism [16]: Metabolite_Detected
MSD [17]: 62 days
Activity [18]: Non-Toxic
Activity [19]: Active
pIC50 [20]: 4.98
Activity [21]: Non-Toxic
Activity [22]: Active
Activity [23]: Active
Activity [24]: Active
Activity [25]: Non-Toxic
Activity [26]: Active
Activity [27]: Non-Toxic
Activity [28]: Active
Activity [29]: Active
Activity [30]: Active
pIC50 [31]: 5.49
Activity [32]: Active
